The values below come from patent US8389541B2, “Inhibitors of protein tyrosine kinase activity” (MethylGene Inc., priority 2007, dated 2013).

In assay [1] the test system is A549 cells. The assay can be described thus: Wound healing assay in A549 cells (HGF-stimulated). Particulars: Homo sapiens, last dose that inhibited gap closing by more than 25%, 24 h, read-out: A549 WOUND_HEALING IC50. It is filed as cell-based. The protocol: Wound healing assay in A549 cells. A549 cells (ATCC) are seeded in DMEM low glucose medium complemented with 10% FBS into 24-well plates at a density of 7.5×10^4 cells/well and grown to confluence (48 h). Inhibitors were added to the medium at a range of doses (0.00032-10 uM) for 3 h at which point a gap is introduced by scraping cells with a P1000 pipette tip. Cells are then stimulated to migrate by the addition of HGF (in the form of conditioned medium from 293T cells over-expressing the human HGF gene) and the culture is continued for 24 h. […] For the purpose of standardization, a control is carried on every assay plates.

For assay [2], the system named is DU145 cells. The assay can be described thus: Scatter assay in DU145 cells (HGF-stimulated). The format is cell-based. Particulars: Homo sapiens, DU-145, last dose that created an inhibitory effect on scattering, 24 h, read-out: DU145 SCATT. INHIB IC50. The protocol: Scatter assays in DU145. The scatter assay is performed as described previously (Miura H, Nishimura K, Tsujimura A, Matsumiya K, Matsumoto K, Nakamura T, et al. Effects of hepatocyte growth factor on E-cadherin-mediated cell-cell adhesion in DU145 prostate cancer cells. Urology 2001; 58(6):1064-9) for DU145 prostate carcinoma cells with the indicated modifications. In brief, DU145 cells (ATCC) are seeded in 24-well plates at a density of 7×10^3 cells/well in MEM medium complemented with 10% FBS and cultured for 48 h, to allow the formation of small compact colonies of cells. Inhibitors are subsequently added at a range of doses (0.00032-10 uM) for 3 h. Cells are then stimulated to migrate by the addition of HGF (in the form of conditioned medium from 293T cells over-expressing the human HGF gene) and the culture is continued for another 24 h. The IC50 values is defined as the last dose that created an inhibitory effect on scattering. For the purpose of standardization a control is carried on every test plates for the DU145 scattering assays.

For assay [3], the target named is T1, VEGF receptor KDR (Homo sapiens, UniProt P35968).
T1 construct: made in house; host or cells: Sf9 cells (Spodoptera frugiperda), baculovirus
The experiment in a line: In vitro receptor tyrosine kinase assay (DELFIA), VEGF receptor KDR. It is filed as biochemical. Particulars: GST-VEGFR2 806-1356, 0.6 uM ATP; read-out: VEGFR IC50. The text has this:
In the case of VEGF receptor KDR a 1.6-kb cDNA corresponding to the catalytic domain of VEGFR2 or KDR (Genbank accession number AF035121 amino acid 806 to 1356) is cloned into the Pst I site of the pDEST20 Gateway vector (Invitrogen) for the production of a GST-tagged version of that enzyme.
The GST-VEGFR2806-1356 protein is expressed in Sf9 cells (Spodoptera frugiperda) upon infection with recombinant baculovirus construct.
The supernatant is loaded onto a GST-agarose column (Sigma) equilibrated with PBS pH 7.3. Following a four column volume (CV) wash with PBS pH 7.3+1% Triton X-100 and 4 CV wash with buffer B (50 mM Tris pH 8.0, 20% glycerol and 100 mM NaCl), bound proteins are step eluted with 5 CV of buffer B supplemented with 5 mM DTT and 15 mM glutathion. […] Final GST-VEGFR2806-1356 protein preparations concentrations are about 0.7 mg/ml with purity approximating 70%.

Assay [4] has as its target T2, c-Met (Homo sapiens, UniProt P08581).
T2 construct: endogenous in cells; host or cells: MKN45 gastric carcinoma cells
The experiment in a line: Inhibition of c-Met phosphorylation in MKN45 cells (direct ELISA). The format is cell-based. The settings on record: 3 h treatment, read-out: CMET ELISA IN MKN45 IC50. The source says: The following assay is used to determine inhibition of c-Met phosphorylation.
The c-Met receptor is expressed in numerous cancer cell lines derived from tumors of epithelial origin. In MKN45 gastric carcinoma cells the c-Met gene is amplified, resulting in several-fold overexpression of the receptor and its constitutive activation. For this reason constitutively high levels of ERK1/2 are also detected in these cells, independently of HGF-added stimulation (Smolen G A, Sordella R, Muir B, Mohapatra G, Barmettler A, Archibald H, et al. Amplification of MET may identify a subset of cancers with extreme sensitivity to the selective tyrosine kinase inhibitor PHA-665752. Proc Natl Acad Sci USA 2006). We have developed a sensitive method to follow c-Met phosphorylation in these cells. In previous studies with earlier generation c-Met inhibitors, we established that the IC50s for the inhibition of c-Met phosphorylation were identical using this novel ELISA approach and standard western blot procedure, with antibodies directed against the activating autocatalysis tyrosine residues of c-MET (Tyr Y1230-34-35).
Cell treatments: MKN45 cells are seeded into wells of 96-well plates at a density of 3×10^4 cells/well in RPMI medium supplemented with 10% FBS. HA-TPR-RON expressing 293T (clone 18) cells are seeded into wells of 96-well plates at a density of 3×10^4 cells/well in DMEM medium supplemented with 10% FBS. Cells are grown for 48 h prior to treatments with compounds of interest. Inhibitors are added to the medium in triplicate wells at the indicated doses. After 3 h of treatment, media is aspirated and cells are lysed by one freeze-thaw cycle in 50 μL/well hypotonic lysis buffer (25 mM HEPES pH 7.5, 10 mM NaCl with 1 mM 4-(2-aminoethyl)benzenesulfonyl fluoride hydrochloride, 200 μM sodium orthovanadate, 1 mM sodium fluoride, 10 μg/mL of leupeptin, 10 μg/mL of aprotinin/mL, 1 μg/mL of pepstatin and 50 μg/mL Na-p-tosyl-L-lysine chloromethyl ketone hydrochloride.
Detection of phosphorylated c-Met by direct ELISA: Lysate samples (5 μL) from wells of treatment plates are transferred to 80 μL of binding buffer (25 mM HEPES pH 7.5, 200 mM NaCl) in wells of high binding white polysterene 96-well plates (Corning). After an overnight protein binding incubation at 4° C., lysates are aspirated and wells are blocked for 1 h at 37° C. in TBST supplemented with 5% BSA. Plates are incubated with the primary antibodies anti-phospho-Tyrosine (Millipore, 4G10) diluted 1/15000 in TBST supplemented with 5% BSA for 1 h at room temperature. Plates are washed 3 times on a plate washer (SkanWasher, Molecular Devises), and incubated with the reporter antibody […] (Sigma) diluted 1/15000 in TBST supplemented with 5% BSA, for 1 h at room temperature. Plates are washed 3 times with TBST using on a plate washer and subsequently incubated with chemiluminescent substrate solution (ECL, Roche). Luminescence signal is captured on a Polar Star Optima apparatus (BMG LabTech).
Average values of the triplicate samples are used to prepare IC50 curves using a 4-parameter fit model. These curves are calculated using, for example, GraFit 5.0 software. For assay standardization purpose, an internal control is included on each experimental test plate.
A general note: ELISA stands for enzyme-linked immunosorbent assay.

Assay [5] addresses recombinant human c-Met/HGF receptor (Homo sapiens, UniProt P08581). The experiment in a line: In vitro receptor tyrosine kinase assay (DELFIA), c-Met/HGF receptor.

Sequence of recombinant human c-Met/HGF receptor (P08581 1078-1337): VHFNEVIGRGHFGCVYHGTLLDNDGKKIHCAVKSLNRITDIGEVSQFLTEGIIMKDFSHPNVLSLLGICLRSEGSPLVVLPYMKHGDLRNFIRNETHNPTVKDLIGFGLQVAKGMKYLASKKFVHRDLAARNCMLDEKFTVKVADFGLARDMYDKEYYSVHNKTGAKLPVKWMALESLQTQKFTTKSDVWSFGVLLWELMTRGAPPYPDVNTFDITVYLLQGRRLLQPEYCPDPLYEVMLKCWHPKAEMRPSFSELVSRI
T2 sequence (P08581 25-1390): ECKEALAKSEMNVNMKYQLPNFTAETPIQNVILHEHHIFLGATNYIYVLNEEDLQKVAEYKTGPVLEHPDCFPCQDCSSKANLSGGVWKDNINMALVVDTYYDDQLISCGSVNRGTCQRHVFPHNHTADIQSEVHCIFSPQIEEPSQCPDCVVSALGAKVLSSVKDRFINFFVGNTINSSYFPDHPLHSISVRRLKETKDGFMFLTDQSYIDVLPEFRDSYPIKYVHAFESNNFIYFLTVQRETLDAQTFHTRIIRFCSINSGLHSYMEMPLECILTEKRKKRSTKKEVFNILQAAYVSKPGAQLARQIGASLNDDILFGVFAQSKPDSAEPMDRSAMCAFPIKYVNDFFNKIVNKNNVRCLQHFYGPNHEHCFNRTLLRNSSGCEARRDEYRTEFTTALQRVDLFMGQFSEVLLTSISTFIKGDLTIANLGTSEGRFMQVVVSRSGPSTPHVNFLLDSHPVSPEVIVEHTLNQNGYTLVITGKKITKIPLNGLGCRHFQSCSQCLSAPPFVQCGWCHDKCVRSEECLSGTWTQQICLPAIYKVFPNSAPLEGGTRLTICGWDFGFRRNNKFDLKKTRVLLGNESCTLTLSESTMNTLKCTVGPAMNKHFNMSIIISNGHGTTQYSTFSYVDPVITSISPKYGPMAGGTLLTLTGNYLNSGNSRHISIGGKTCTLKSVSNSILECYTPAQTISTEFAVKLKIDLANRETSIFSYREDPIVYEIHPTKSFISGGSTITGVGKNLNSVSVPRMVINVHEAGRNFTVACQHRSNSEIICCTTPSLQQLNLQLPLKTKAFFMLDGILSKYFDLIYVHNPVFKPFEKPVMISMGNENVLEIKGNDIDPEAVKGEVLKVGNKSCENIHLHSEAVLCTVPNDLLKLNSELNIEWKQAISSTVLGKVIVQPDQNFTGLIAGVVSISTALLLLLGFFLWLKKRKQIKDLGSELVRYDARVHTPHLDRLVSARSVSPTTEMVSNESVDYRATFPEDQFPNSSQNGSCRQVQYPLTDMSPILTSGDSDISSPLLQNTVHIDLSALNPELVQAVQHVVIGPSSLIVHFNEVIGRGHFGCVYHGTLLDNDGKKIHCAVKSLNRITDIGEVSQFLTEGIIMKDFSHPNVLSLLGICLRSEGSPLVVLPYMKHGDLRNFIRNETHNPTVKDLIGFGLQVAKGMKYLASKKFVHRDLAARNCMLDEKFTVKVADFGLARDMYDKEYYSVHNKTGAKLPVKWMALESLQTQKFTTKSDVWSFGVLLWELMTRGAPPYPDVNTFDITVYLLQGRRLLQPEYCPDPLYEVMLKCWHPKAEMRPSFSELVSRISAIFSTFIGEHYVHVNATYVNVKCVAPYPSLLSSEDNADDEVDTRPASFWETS
T1 sequence (P35968 806-1356): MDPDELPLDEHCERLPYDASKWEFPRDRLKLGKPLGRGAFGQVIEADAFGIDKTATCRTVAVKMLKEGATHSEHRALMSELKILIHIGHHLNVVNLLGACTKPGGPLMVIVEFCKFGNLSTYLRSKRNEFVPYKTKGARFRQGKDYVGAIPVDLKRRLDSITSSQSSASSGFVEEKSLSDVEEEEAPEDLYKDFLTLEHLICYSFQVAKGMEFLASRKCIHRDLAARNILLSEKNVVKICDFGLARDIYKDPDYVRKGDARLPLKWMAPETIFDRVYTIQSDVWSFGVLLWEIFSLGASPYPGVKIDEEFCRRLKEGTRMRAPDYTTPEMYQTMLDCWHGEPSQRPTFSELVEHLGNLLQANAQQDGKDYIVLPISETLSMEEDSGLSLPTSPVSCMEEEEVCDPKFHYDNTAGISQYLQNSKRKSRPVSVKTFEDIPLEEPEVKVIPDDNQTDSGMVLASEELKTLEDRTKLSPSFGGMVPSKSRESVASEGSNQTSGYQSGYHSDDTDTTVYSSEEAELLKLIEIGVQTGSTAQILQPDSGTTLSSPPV

For orientation: IC50 means the midpoint of a concentration-inhibition curve. Turning to `COCCNCc1cccc(-c2cc3nccc(Oc4ccc(NC(=O)C5(C(=O)Nc6ccccc6)CC5)cc4F)c3s2)c1`, the IC50 in assay [1], in assay [2], in assay [3], in assay [4] and in assay [5] was less than 250 nM in each case.
On to `COCCNCc1cccc(-c2cc3nccc(Oc4ccc(NC(=O)NC(=O)Cc5ccc(F)cc5)cc4F)c3s2)c1`, for which the half-inhibitory concentration (IC50) is more than 1000 nM in assay [1]; 250 to 500 nM in assay [2]; 250 to 500 nM in assay [3]; 250 to 500 nM in assay [4]; less than 250 nM in assay [5].
Turning to `O=C(Nc1ccccc1)C1(C(=O)Nc2ccc(Oc3ccnc4cc(-c5ccc(CNCC(F)(F)F)cc5)sc34)c(F)c2)CC1`, the IC50 in assay [1], in assay [2], in assay [3], in assay [4] and in assay [5] was less than 250 nM in each case.
As to `COCCNCc1ccc(-c2cc3nccc(Oc4ccc(NC(=O)CC(=O)Nc5ccccc5)cc4F)c3s2)c(F)c1`, the half-inhibitory concentration (IC50) in assay [1] was more than 1000 nM; in assay [2] it was 250 to 500 nM; in assay [3], less than 250 nM; in assay [4], less than 250 nM; in assay [5], less than 250 nM.
In the case of `O=C(Cc1ccc(F)cc1)NC(=S)Nc1ccc(Oc2ccnc3cc(-c4ccc(CNC5CC5)cc4)sc23)c(F)c1`, the IC50 is 250 to 500 nM in assay [1]; 250 to 500 nM in assay [2]; less than 250 nM in assay [3]; less than 250 nM in assay [4]; less than 250 nM in assay [5].
In the case of `COC[C@H](C)NCc1ccc(-c2cc3nccc(Oc4ccc(NC(=O)C5(C(=O)Nc6ccccc6)CC5)cc4F)c3s2)cc1`, the IC50 in assay [1], in assay [2], in assay [3], in assay [4] and in assay [5] was less than 250 nM each time.
Regarding `CN(C(=O)CC(=O)Nc1ccc(Oc2ccnc3cc(-c4ccc(CNCCS(C)(=O)=O)cc4)sc23)c(F)c1)c1ccccc1` [drawing 347], the IC50 is 250 to 500 nM in assay [1]; 250 to 500 nM in assay [2]; less than 250 nM in assay [3]; less than 250 nM in assay [4]; less than 250 nM in assay [5].
Consider `CSCCNCc1ccc(-c2cc3nccc(Oc4ccc(NC(=S)NC(=O)Cc5ccccc5)cc4F)c3s2)cc1`, for which the IC50 in assay [1] is 250 to 500 nM; in assay [2], 250 to 500 nM; in assay [3] it was less than 250 nM; in assay [4], less than 250 nM; in assay [5] it was less than 250 nM.
`COC[C@H](C)NCc1ccc(-c2cc3nccc(Oc4ccc(NC(=S)NC(=O)Cc5ccc(F)cc5)cc4F)c3s2)cc1`: the IC50 was 250 to 500 nM in assay [1]; 250 to 500 nM in assay [2]; less than 250 nM in assay [3]; less than 250 nM in assay [4]; less than 250 nM in assay [5].
As to `COCCNCc1cccc(-c2cc3nccc(Oc4ccc(NC(=S)NC(=O)Cc5ccccc5OC)cc4F)c3s2)c1`, the IC50 was 250 to 500 nM in assay [1]; 250 to 500 nM in assay [2]; less than 250 nM in assay [3]; less than 250 nM in assay [4]; less than 250 nM in assay [5].
Turning to `COCCNCc1ccc(-c2cc3nccc(Oc4ccc(NC(=O)C5(C(=O)Nc6ccccc6)CC5)cc4F)c3s2)o1` [drawing 326], the half-maximal inhibitory concentration (IC50) was 250 to 500 nM in assay [1]; 250 to 500 nM in assay [2]; less than 250 nM in assay [3]; less than 250 nM in assay [4]; less than 250 nM in assay [5].
On to `COCCNCc1cccc(-c2cc3nccc(Oc4ccc(NC(=S)NC(=O)Cc5ccc(F)cc5)cc4F)c3s2)c1` [drawing 296], for which the IC50 in assay [1] was 250 to 500 nM; in assay [2], 250 to 500 nM; in assay [3], less than 250 nM; in assay [4] it was less than 250 nM; in assay [5] it was less than 250 nM.
For `COCCNCc1ccc(-c2cc3nccc(Oc4ccc(NC(=S)NC(=O)Cc5ccccc5OC)cc4F)c3s2)nc1` [drawing 311], the IC50 in assay [1] was 250 to 500 nM; in assay [2], 250 to 500 nM; in assay [3] it was less than 250 nM; in assay [4], less than 250 nM; in assay [5], less than 250 nM.
As for `COCCNCc1ccc(-c2cc3nccc(Oc4ccc(NC(=O)CC(=O)Nc5ccccc5)cc4F)c3s2)nc1`, the IC50 in assay [1], in assay [2], in assay [3], in assay [4] and in assay [5] was less than 250 nM throughout.
`CS(=O)(=O)CCNCc1ccc(-c2cc3nccc(Oc4ccc(NC(=S)NC(=O)Cc5ccc(F)cc5)cc4F)c3s2)cc1`: the 50% inhibitory concentration (IC50) is 250 to 500 nM in assay [1]; 250 to 500 nM in assay [2]; less than 250 nM in assay [3]; less than 250 nM in assay [4]; less than 250 nM in assay [5].
In the case of `COCCNCc1ccc(-c2cc3nccc(Oc4ccc(NC(=S)NC(=O)Cc5ccccc5)cc4F)c3s2)cn1` [drawing 308], the half-maximal inhibitory concentration (IC50) is 250 to 500 nM in assay [1]; 250 to 500 nM in assay [2]; 250 to 500 nM in assay [3]; less than 250 nM in assay [4]; less than 250 nM in assay [5].
Take `COCCNCc1ccc(-c2cc3nccc(Oc4ccc(NC(=S)NC(=O)Cc5ccc(F)cc5)cc4F)c3s2)o1`: the IC50 is more than 1000 nM in assay [1]; more than 1000 nM in assay [2]; less than 250 nM in assay [3]; less than 250 nM in assay [4]; less than 250 nM in assay [5].
For `COCCNCc1ccc(-c2cc3nccc(Oc4ccc(NC(=O)CC(=O)N(C)c5ccccc5)cc4F)c3s2)nc1` [drawing 346], the IC50 in assay [1] was 250 to 500 nM; in assay [2], 250 to 500 nM; in assay [3], less than 250 nM; in assay [4], less than 250 nM; in assay [5] it was less than 250 nM.
